Assay results published in BigSolDB 2.1.

OC[C@H]1O[C@@H](Oc2c(O)cc(O)cc2/C=C/c2ccc(O)cc2)[C@H](O)[C@@H](O)[C@@H]1O
solubility (mole fraction)
Conditions | in DMF | in THF | in acetone | in acetonitrile | in ethanol | in ethyl acetate | in isopropanol | in methanol | in n-propanol
278.15 K | 0.0145 | 0.0128 | 0.0121 | 0.00281 | 0.00757 | 0.00441 | 0.00535 | 0.00794 | 0.00601
283.15 K | 0.0175 | 0.0157 | 0.0149 | 0.00349 | 0.00881 | 0.00543 | 0.00652 | 0.00978 | 0.0078
288.15 K | 0.0214 | 0.0191 | 0.0181 | 0.0043 | 0.0108 | 0.00665 | 0.00838 | 0.0121 | 0.00977
293.15 K | 0.0255 | 0.0231 | 0.0219 | 0.00526 | 0.0136 | 0.00828 | 0.01 | 0.0149 | 0.012
298.15 K | 0.0311 | 0.0277 | 0.0264 | 0.00639 | 0.0159 | 0.00987 | 0.0122 | 0.0181 | 0.014
303.15 K | 0.0369 | 0.0331 | 0.0315 | 0.00772 | 0.0199 | 0.0118 | 0.0146 | 0.0215 | 0.0166
308.15 K | 0.0442 | 0.0393 | 0.0365 | 0.00927 | 0.0232 | 0.0139 | 0.0174 | 0.0261 | 0.0196
313.15 K | 0.0522 | 0.0464 | 0.0443 | 0.0111 | 0.0281 | 0.0165 | 0.0205 | 0.0316 | 0.0228
318.15 K | 0.0614 | 0.0545 | 0.052 | 0.0131 | 0.0326 | 0.0192 | 0.0238 | 0.0377 | 0.0269
